The values below are quoted from earlier work in US7390503B1, “Ondansetron orally disintegrating tablets” (Barr Laboratories, Inc., priority 2003, dated 2008).

For this data set the following is noted: general statement, no test described.

Counter-ions that a name gives are not always drawn. Like-named read-outs stand apart in the source and are kept apart here.

Take `Cc1nccn1CC1CCc2c(c3ccccc3n2C)C1=O` (centres unmarked) [Ondansetron hydrochloride dihydrate]: the solubility in water entry (hydrochloride dihydrate) is recorded as “freely soluble in water”.
In the case of `Cc1nccn1CC1CCc2c(c3ccccc3n2C)C1=O` (centres unmarked) [ondansetron in free base form, 1,2,3,9-tetrahydro-9-methyl-3-[(2-methyl-1H-imidazol-1-yl)methyl]-4H-carbazol-4-one], the solubility in water entry is “soluble in water”.
